This assay has as its target T1, RlmJ (Escherichia coli, UniProt P37634).
T1 sequence (P37634 1-280): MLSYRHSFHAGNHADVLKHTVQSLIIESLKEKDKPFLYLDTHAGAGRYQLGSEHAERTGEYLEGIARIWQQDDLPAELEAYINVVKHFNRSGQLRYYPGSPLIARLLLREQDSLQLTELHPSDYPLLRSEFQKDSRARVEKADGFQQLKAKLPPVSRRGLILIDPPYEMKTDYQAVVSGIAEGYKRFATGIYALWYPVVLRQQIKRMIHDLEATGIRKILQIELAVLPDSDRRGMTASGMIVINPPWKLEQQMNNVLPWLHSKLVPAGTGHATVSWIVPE
Kind of assay: ITC and DSF. The assay is classed as binding.

1 compound from publication PMC6546350 (RNA Biology, 2019) can be followed below.

For orientation: Kd means the concentration at which binding is half-saturated. Low values mean tighter binding, high ones weaker binding.

Each structure is given as a SMILES string.

`Nc1ncnc2c1ncn2[C@@H]1O[C@H](C[C@@H](N)CC[C@H](N)C(=O)O)[C@@H](O)[C@H]1O` [sinefungin] registered a Kd of 1700 ± 200 nM.
